Measurements as given in the supplement of paper PMC10307832.

How the values were obtained:
Test in all cases: relative viability (nuclei count vs DMSO), 5 days (fraction); higher = more cells survive
DM3189 + Bortezomib = compound: C1CN(CCN1)C2=CC=C(C=C2)C3=CN4C(=C(C=N4)C5=CC=NC6=CC=CC=C56)N=C3 [DM3189] + CC(C)C[C@H](NC(=O)[C@H](Cc1ccccc1)NC(=O)c1cnccn1)B(O)O [Bortezomib] (partner 0.002 µM)
Procedure, shortened: (§1)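 Cells from lung cancer lines were seeded into 1536-well plates and, one day later, dosed by pin tool. Treatments were either a single drug or a fixed dose of an anchor drug with five library-drug doses (not always all listed) in √10 steps. After 5 days, nuclei were stained in a one-step fixation (final 0.05% Triton X-100, 1% formaldehyde, 1 ug/ml Hoechst) and counted on 4× images, and relative viability is the treated-to-vehicle nuclei ratio, as the median of duplicate plates.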

DM3189 + OSI-027 = compound: C1CN(CCN1)C2=CC=C(C=C2)C3=CN4C(=C(C=N4)C5=CC=NC6=CC=CC=C56)N=C3 [DM3189] + COc1cccc2cc(-c3nc([C@H]4CC[C@H](C(=O)O)CC4)n4ncnc(N)c34)[nH]c12 [OSI-027] (partner 0.5 µM)
Procedure, shortened: as §1

DM3189 + Crizotinib = compound: C1CN(CCN1)C2=CC=C(C=C2)C3=CN4C(=C(C=N4)C5=CC=NC6=CC=CC=C56)N=C3 [DM3189] + C[C@@H](Oc1cc(-c2cnn(C3CCNCC3)c2)cnc1N)c1c(Cl)ccc(F)c1Cl [Crizotinib] (partner 1 µM)
Procedure, shortened: as §1

DM3189 + Pemetrexed = compound: C1CN(CCN1)C2=CC=C(C=C2)C3=CN4C(=C(C=N4)C5=CC=NC6=CC=CC=C56)N=C3 [DM3189] + Nc1nc2[nH]cc(CCc3ccc(C(=O)N[C@@H](CCC(=O)O)C(=O)O)cc3)c2c(=O)[nH]1 [Pemetrexed] (partner 0.2 µM)
Procedure, shortened: as §1

DM3189 + Decitabine = compound: C1CN(CCN1)C2=CC=C(C=C2)C3=CN4C(=C(C=N4)C5=CC=NC6=CC=CC=C56)N=C3 [DM3189] + Nc1ncn([C@H]2C[C@H](O)[C@@H](CO)O2)c(=O)n1 [Decitabine] (partner 2 µM)
Procedure, shortened: as §1

Row | Cell Line | relative viability (DM3189 + Bortezomib; first compound 0.08 µM) | relative viability (DM3189 + Bortezomib; first compound 0.253 µM) | relative viability (DM3189 + Bortezomib; first compound 0.8 µM) | relative viability (DM3189 + Bortezomib; first compound 2.53 µM) | relative viability (DM3189 + OSI-027; first compound 0.08 µM) | relative viability (DM3189 + OSI-027; first compound 0.253 µM) | relative viability (DM3189 + OSI-027; first compound 0.8 µM) | relative viability (DM3189 + OSI-027; first compound 2.53 µM) | relative viability (DM3189 + Crizotinib; first compound 0.08 µM) | relative viability (DM3189 + Crizotinib; first compound 0.253 µM) | relative viability (DM3189 + Crizotinib; first compound 0.8 µM) | relative viability (DM3189 + Crizotinib; first compound 2.53 µM) | relative viability (DM3189 + Pemetrexed; first compound 0.08 µM) | relative viability (DM3189 + Pemetrexed; first compound 0.253 µM) | relative viability (DM3189 + Pemetrexed; first compound 0.8 µM) | relative viability (DM3189 + Pemetrexed; first compound 2.53 µM) | relative viability (DM3189 + Decitabine; first compound 0.08 µM) | relative viability (DM3189 + Decitabine; first compound 0.253 µM) | relative viability (DM3189 + Decitabine; first compound 0.8 µM) | relative viability (DM3189 + Decitabine; first compound 2.53 µM)
1 | NCI-H1651 | 1.04 | 0.984 | 0.908 | 0.971 | 0.783 | 0.626 | 0.864 | 0.727 | 0.857 | 0.886 | 0.878 | 0.957 | 0.729 | 0.556 | 0.553 | 0.541 | 0.703 | 0.646 | 0.626 | 0.67
2 | NCI-H1666 | 0.853 | 0.783 | 0.898 | 0.91 | 1.01 | 0.941 | 1.1 | 1.01 | 1.07 | 1.01 | 0.965 | 0.8 | 1 | 0.818 | 0.844 | – | 0.882 | 0.688 | 0.748 | 0.83
3 | NCI-H1734 | 1.02 | 0.982 | 0.778 | 0.775 | 0.684 | 0.572 | 0.592 | 0.565 | 0.585 | 0.695 | 0.676 | 0.657 | 0.438 | 0.4 | 0.353 | 0.352 | 0.528 | 0.506 | 0.49 | 0.524
4 | NCI-H1755 | 0.95 | 0.878 | 0.807 | 0.505 | 0.732 | 0.688 | 0.574 | 0.786 | 0.768 | 0.837 | 0.736 | 0.818 | 0.418 | 0.555 | 0.502 | 0.395 | 0.739 | 0.694 | 0.729 | 0.671
5 | NCI-H1792 | 0.838 | 0.926 | 0.852 | 0.656 | 0.585 | 0.703 | 0.661 | 0.839 | 0.861 | 0.992 | 0.887 | 0.441 | 0.986 | 0.98 | 0.645 | 0.616 | 0.529 | 0.519 | 0.397 | 0.579
6 | NCI-H1915 | 1.04 | 0.904 | 0.83 | 0.88 | 0.823 | 0.62 | 0.543 | 0.553 | 0.879 | 0.79 | 0.808 | 0.783 | 0.468 | 0.471 | 0.454 | 0.448 | 0.261 | 0.253 | 0.257 | 0.257
7 | NCI-H1975 | 0.454 | 0.371 | 0.297 | 0.353 | 1 | 0.627 | 0.666 | 0.514 | 1.1 | 0.928 | 0.819 | 0.647 | 0.27 | 0.281 | 0.266 | 0.278 | 0.374 | 0.41 | 0.361 | 0.336
8 | NCI-H1993 | – | 0.915 | 1.17 | 1.27 | 0.541 | 0.49 | 0.476 | 0.506 | – | 0.846 | 0.744 | 0.991 | 0.622 | 0.626 | 0.545 | 0.541 | 0.579 | 0.654 | 0.571 | 0.499
9 | NCI-H2009 | 1.24 | 1.04 | 0.782 | 0.984 | 0.684 | 0.577 | 0.553 | 0.579 | 1.07 | 1.03 | 0.933 | 0.922 | 1.07 | 0.988 | 0.985 | 1 | 0.416 | 0.354 | 0.412 | 0.417
10 | NCI-H2023 | 1.12 | 0.961 | 0.823 | 0.514 | 0.428 | 0.388 | 0.295 | 0.398 | 0.68 | 0.729 | 0.631 | 0.502 | 0.235 | 0.231 | 0.236 | 0.178 | 0.229 | 0.225 | 0.205 | 0.201
11 | NCI-H2085 | 1.08 | 1.04 | 1.03 | 0.958 | 0.835 | 0.721 | 0.722 | 0.864 | 0.941 | 0.807 | 0.872 | 0.752 | 0.885 | 0.886 | 0.941 | 0.869 | 0.504 | 0.565 | 0.564 | 0.591
12 | NCI-H2087 | 1.1 | 0.774 | 0.768 | 0.736 | 0.718 | 0.462 | 0.449 | 0.601 | 0.894 | 0.695 | 0.788 | 0.79 | 0.724 | 0.659 | 0.67 | 0.573 | 0.269 | 0.249 | 0.284 | 0.275
13 | NCI-H2126 | 1.19 | 1.18 | 1.19 | 1.12 | 0.79 | 0.704 | 0.67 | 0.645 | 1.07 | 0.989 | 0.98 | 1.06 | 0.717 | 0.624 | 0.565 | 0.652 | 0.558 | 0.547 | 0.53 | 0.61
14 | NCI-H2347 | 1.08 | 0.91 | 0.944 | 1.17 | 0.486 | 0.337 | 0.455 | 0.335 | 0.692 | 0.761 | 0.67 | 0.675 | 0.473 | 0.51 | 0.432 | 0.518 | 0.591 | 0.622 | 0.576 | 0.668
15 | NCI-H2405 | 0.986 | 0.946 | 0.966 | 0.96 | 0.584 | 0.608 | 0.636 | 0.724 | 0.867 | 0.855 | 0.775 | 0.855 | 1.1 | 0.917 | 0.997 | 1.06 | 0.744 | 0.744 | 0.691 | 0.756
